According to patent publication US6960574B2, “Antagonists of RF-amide neuropeptides” (University of Florida, priority 2002, dated 2005):
Read-outs that look alike come from different tables or passages of the source. Ends that are not written are not given here. Peptide text beside a SMILES is read from it. * marks the point of attachment. Dansyl = CN(C)c1cccc2c(S(=O)(=O)*)cccc12; Desaminotyrosyl = O=C(CCc1ccc(O)cc1)*

Assays:
[1] = molecular target: receptor labeled by the radioiodinated analogue of 1 (4, [125I]-YLFQPQRF-NH2); neuropeptide FF receptor; experiment: Competitive radioligand binding against 4 ([125I]Y8F-amide); settings: for Ki: competition against 4; for Relative Binding Index (RBI): mixture-based positional scanning, difference from averaged radioligand displacement of whole library (0), about 80 a.u. = 10-fold change in Ki
[2] = tested on: naloxone-precipitated withdrawal symptoms; settings: cited from earlier work
[3] = tested on: abstinence-like signs induced by neuropeptide FF (1); settings: cited from earlier work
[4] = Immobilized artificial membrane (IAM) chromatography; format: physicochemical
Description: The purity of this new neuropeptide FF antagonist was confirmed by combustion analysis [Table 1] (data were within ±0.4% of calculated values) and ESI mass spectrometry (no impurities exceeding 1% based on relative ion abundance). […] The compounds were also characterized by immobilized artificial membrane (IAM) chromatography, a method that furnishes capacity factors whose logarithm generally correlates with in vivo absorption [Pidgeon, et al., J. Med. Chem. 1995, 38, 590-594] including penetration across the BBB [Reichel, et al., Pharm. Res. 1998, 15, 1270-1274].
The combinatorial libraries herein were prepared on a SynPep (Dublin, Calif.) multiple peptide synthesizer. A Synthor 2000, Peptide International (Louisville, Ky.) instrument was used for the preparation of the individual compounds by Fmoc chemistry. Immobilized artificial membrane (IAM) chromatography was performed on a system that included a model SP 8810 precision isocratic pump, an SP 8880 autosampler with a 20-μL injection loop, an SP 8450 variable wavelength UV/VIS detector operated at 254 nm, and SP 4290 computing integrator (all from ThermoSeparation|SpectraPhysics, Fremont, Calif.). RP-HPLC purification was done on a system composed of an SP 200 binary gradient pump (ThermoSeparation), a Rheodyne (Cotati, Calif.) model 7125 injector valve equipped with a 5-mL sample loop, and an SP 100 UV/VIS detector (ThermoSeparation) operated at 210 nm. Electrospray ionization (ESI) and tandem mass spectra were obtained on a quadrupole ion trap instrument (LCQ, Finnigan MAT, San Jose, Calif.). NMR spectra were recorded on Bruker AVANCE instruments (Bremen, Germany). Resonance frequencies were 500 and 600 MHz for ^1H and 127 MHz for ^13C. The samples were dissolved in H2O/D2O (8/2, v/v).

[5] = molecular target: receptor labeled by the radioiodinated analogue of 1 (4, [125I]-YLFQPQRF-NH2); neuropeptide FF receptor; settings: CNS membrane preparation, literature value; cited from earlier work
[6] = after systemic administration; cited from earlier work
[7] = tested on: opiate abstinence syndrome; settings: 2 μg i.c.v.; cited from earlier work

Compound: CN(C)c1cccc2c(S(=O)(=O)N3CCCC3C(=O)NC(CCC(N)=O)C(=O)NC(CCCNC(=N)N)C(N)=O)cccc12 (stereo not drawn) [Compound 3, Dansyl-Pro-Gln-Arg-NH2, reference compound] (Dansyl-Pro-Gln-Arg-NH2; configuration not given here)
- Ki [1]: 13.6 µM
- Relative Binding Index (RBI) [1]: −34 a.u.
- naloxone-precipitated withdrawal symptoms in morphine-dependent rats ([2]; administered subcutaneously): blunted
- QMAS induced by 1 ([3]; rat, in vivo): dose-dependently antagonized
- kIAM′ (IAM capacity factor) [4]: 5.9
- log kIAM′ [4]: 0.77
- inhibition constant (Ki) [5]: micromolar range

Compound: CN(C)c1cccc2c(S(=O)(=O)NCC(=O)NC(CO)C(=O)NC(CCCNC(=N)N)C(N)=O)cccc12 (stereo not drawn) [Compound 5, dansyl-Gly-Ser-Arg-NH2] (Dansyl-Gly-Ser-Arg-NH2; configuration not given here)
- Ki [1]: 1.4 ± 0.5 µM
- Relative Binding Index (RBI) [1]: 46 a.u.
- increase in binding affinity compared to 3 ([1]; ratio of Ki values): approximately 10 fold
- kIAM′ (IAM capacity factor) [4]: 8.0
- log kIAM′ [4]: 0.90

Compound: CN(C)c1cccc2c(S(=O)(=O)N[C@@H](Cc3ccc(O)cc3)C(=O)N[C@@H](Cc3c[nH]c4ccccc34)C(=O)N[C@@H](CCCNC(=N)N)C(N)=O)cccc12 [Dansyl-YWR-amide] (Dansyl-Tyr-Trp-Arg-NH2)
- Relative Binding Index (RBI) [1]: 16 a.u.

Compound: CN(C)c1cccc2c(S(=O)(=O)N[C@@H](Cc3ccc(O)cc3)C(=O)N[C@@H](Cc3ccc(O)cc3)C(=O)N[C@@H](CCCNC(=N)N)C(N)=O)cccc12 [Dansyl-YYR-amide] (Dansyl-Tyr-Tyr-Arg-NH2)
- Relative Binding Index (RBI) [1]: 6 a.u.

Compound: Desaminotyrosyl-Phe-Leu-Phe-Gln-Pro-Gln-Arg-NH2 (Desaminotyrosyl-FLFQPQR-NH2; SMILES CC(C)C[C@H](NC(=O)[C@H](Cc1ccccc1)NC(=O)CCc1ccc(O)cc1)C(=O)N[C@@H](Cc1ccccc1)C(=O)N[C@@H](CCC(N)=O)C(=O)N1CCC[C@H]1C(=O)N[C@@H](CCC(N)=O)C(=O)N[C@@H](CCCNC(=N)N)C(N)=O) [Compound 2]
- CNS bioavailability [6]: did not show any CNS bioavailability
- Ki [1]: 0.84 ± 0.18 µM
- abstinence signs upon naloxone challenge in morphine-dependent animals ([2]; icv administration): attenuated
- abstinence-like signs induced by 1 in opiate-naive rats ([3]; icv administration): attenuated

Compound: Phe-Leu-Phe-Gln-Pro-Gln-Arg-Phe-NH2 (FLFQPQRF-NH2) [Compound 1, endogenous neuropeptide FF]
- opiate abstinence syndrome in morphine-dependent rats [7]: precipitates
- quasi-morphine-abstinence syndrome (QMAS) in opiate-naive rats ([3]; 15 μg i.c.v.): induces

Compound: Pro-Phe-Arg(Tic)-NH2 [Compound 3a]
- potency (or efficacy) in the pharmacological tests employed ([2]; compared with 3): less than that of 3
- naloxone-precipitated withdrawal symptoms in morphine-dependent rats ([2]; systemic administration): attenuated
